Data published in ChEMBL document CHEMBL1128271, “Computer-aided molecular modeling, synthesis, and biological evaluation of 8-(benzyloxy)-2-phenylpyrazolo[4,3-c]quinoline as a novel benzodiazepine receptor agonist ligand” (J Med Chem, 1995).
pIC50: −log10 of the molar value.

Target: GABA-A receptor; anion channel
Assay: Inhibition of [3H]-Ro- 15-1788 binding to GABA-A benzodiazepine receptor in rat brain membrane
Format: cell membranes

pIC50 | Compound
< 6.00 | O=c1c2cnc3c(OCc4ccccc4)cccc3c2[nH]n1-c1ccccc1
9.17 | COc1cccc2ncc3c(=O)n(-c4ccccc4)[nH]c3c12
< 6.00 | O=c1c2cnc3cc(OCc4ccccc4)ccc3c2[nH]n1-c1ccccc1
< 3.00 | O=c1c2cnc3cccc(OCc4ccccc4)c3c2[nH]n1-c1ccccc1
7.28 | O=c1c2cnc3ccc(OCc4ccccc4)cc3c2[nH]n1-c1ccc(Cl)cc1
9.13 | O=c1c2cnc3cccc(O)c3c2[nH]n1-c1ccccc1
8.43 | O=c1c2cnc3ccc(OCc4ccccc4)cc3c2[nH]n1-c1ccccc1
